Measured values: publication PMC8234462, “Novel Cyclophilin Inhibitor Decreases Cell Proliferation and Tumor Growth in Models of Hepatocellular Carcinoma” (Cancers, 2021)

How the values were obtained:
HUH7 [1] = assay: Phospho-Histone 3 (PH3) staining; type: cell-based, human; settings: 10 or 100 nM, 48 h
Experimental: (§1) For the quantification of mitotic cells, HEPG2 cells were seeded in a 6-well plate at a concentration of 1.5 × 10^5 cells/well and HUH7 at 1 × 10^5 cells/well in a 6-well plate. Both cells lines were treated with 10 or 100 nM of NV651 or the equivalent volume of DMSO. Samples were fixed for HEPG2 at 24 h and for HUH7 at 48 h of treatment, as described above. Permeabilization was performed by adding 0.25% Tween20 (Sigma-Aldrich, Cat# P1379-500ML, St. Louis, MO, USA) diluted in PBS. Samples were stained with primary antibody mouse anti-PH3 (Merck Millipore, Cat# 05-806, Burlington, MA, USA) at a dilution of 1/100 overnight at 4 °C and with the secondary antibody goat anti-Mouse IgG AF488 conjugated (Life technologies, Cat# A11029, Carlsbad, CA, USA) for 1 h at room temperature. After washing, 1-µg/mL DAPI was added for the staining of the DNA content.
(§2) Data was acquired with FACSverse Instrument and analyzed with FCS Express 6 Flow Research.

HEPG2 [2] = assay: Phospho-Histone 3 (PH3) staining; type: cell-based, human; settings: 10 or 100 nM, 24 h
Experimental: as §1, §2

Unstimulated PBMCs = assay: Cytotoxicity, CellTiter Glo; type: cell-based; settings: Homo sapiens, PBMC, 72 h, 3 days of treatment, read-out: IC50 (50% reduction in cell viability)
Experimental: (§3) The evaluation of the off-target effects of NV651 was performed by ImQuest BioSciences Inc. (Frederick, MD, USA) by analyzing the cytotoxicity in a panel of primary cells. NV651 was evaluated at a concentration of 30 µM and five serial half-logarithmic dilutions in triplicate. The positive control compounds for each cell type were purchased from Sigma-Aldrich (St. Louis, MO, USA) and were as follows:
(§4) Human unstimulated or PHA-P-stimulated PBMCs were isolated by Ficoll hypaque centrifugation from whole blood and resuspended in a fresh tissue culture medium containing IL-2. Cells were seeded at a concentration of 5 × 10^5 /mL in a 96-well plate followed by NV651 treatment in triplicate for 3 days. Cell viability was measured with CellTiter Glo (Promega, Madison, WI, USA).
(§5) CellTiter Glo was performed to evaluate cell viability. CellTiter Glo Luminescent Cell Viability Assay (Promega, Madison, WI, USA) was performed according to the manufacturer’s instructions.

PHA-stimulated PBMCs = assay: Cytotoxicity, CellTiter Glo; type: cell-based; settings: Homo sapiens, PBMC, 72 h, 3 days of treatment, read-out: IC50 (50% reduction in cell viability)
Experimental: as §3, §4, §5

Hepatocytes = assay: Cytotoxicity, CellTiter Glo; type: cell-based; settings: Homo sapiens, Hepatocyte, 48 h, 2 days of treatment, read-out: IC50 (50% reduction in cell viability)
Experimental: as §3, §5

Monocytes/Macrophages = assay: Cytotoxicity, CellTiter Glo; type: cell-based; settings: Homo sapiens, 168 h, 7 days of treatment, read-out: IC50 (50% reduction in cell viability)
Experimental: as §3, §5

iPS neurons = assay: Cytotoxicity, CellTiter Glo; type: cell-based; settings: Homo sapiens, Neuron, 72 h, 3 days of treatment, read-out: IC50 (50% reduction in cell viability)
Experimental: as §3, §5

LIXC-006 = assay: Cell proliferation assay: Acumen; type: cell-based; settings: Homo sapiens, 168 h, 7 days, read-out: Abs IC50 growth inhibition
Experimental: (§6) Compound screening and comparison of the antiproliferative effect of NV651 and sorafenib were performed by Shanghai ChemPartner Co., Ltd. (Shanghai, China). Cells were seeded in a 96-well plate at the following concentrations: LIXC-003 400 cells/well, LIXC-004 1000 cells/well, LIXC-086 5000 cells/well, LIXC-066 1250 cells/well, LIXC-012 2000 cells/well, LIXC-006 1250 cells/well, HEPG2 1000 cells/well, HUH7 2000 cells/well and Hep3B2.1-7-Luc 1000 cells/well. Cells were treated with either sorafenib or NV651 at 0.004, 0.011, 0.034, 0.103, 0.309, 0.926, 2.778, 8.333, 25 µM or an equivalent volume with DMSO.
(§7) After 7 days, cells were trypsinized and collected. Fifty microliters of cell suspension were added to 50 µL of 2-µM Calcein AM (Invitrogen, Cat# C3099, Waltham, MA, USA) diluted in HBSS and placed in a black-walled 96-well plate. The plate was left for 30 min at room temperature, followed by a scan with Acumen eX3.
(§8) Growth inhibition for direct cell counting (%) by Acumen was calculated as:(1) 100−100∗Experimental count−Blank/DMSO count −Blank

HEP3B2.1-7-Luc = assay: Cell proliferation assay: Acumen; type: cell-based; settings: Homo sapiens, 168 h, 7 days, read-out: Abs IC50 growth inhibition
Experimental: as §6, §7, §8

LIXC-004 = assay: Cell proliferation assay: Acumen; type: cell-based; settings: Homo sapiens, 168 h, 7 days, read-out: Abs IC50 growth inhibition
Experimental: as §6, §7, §8

HUH7 [3] = assay: Cell proliferation assay: Acumen; type: cell-based; settings: Homo sapiens, Huh-7, 168 h, 7 days, read-out: Abs IC50 growth inhibition
Experimental: as §6, §7, §8

LIXC-066 = assay: Cell proliferation assay: Acumen; type: cell-based; settings: Homo sapiens, 168 h, 7 days, read-out: Abs IC50 growth inhibition
Experimental: as §6, §7, §8

LIXC-086 = assay: Cell proliferation assay: Acumen; type: cell-based; settings: Homo sapiens, 168 h, 7 days, read-out: Abs IC50 growth inhibition
Experimental: as §6, §7, §8

LIXC-003 = assay: Cell proliferation assay: Acumen; type: cell-based; settings: Homo sapiens, 168 h, 7 days, read-out: Abs IC50 growth inhibition
Experimental: as §6, §7, §8

HEPG2 [4] = assay: Cell proliferation assay: Acumen; type: cell-based; settings: Homo sapiens, 168 h, 7 days, read-out: Abs IC50 growth inhibition
Experimental: as §6, §7, §8

LIXC-012 = assay: Cell proliferation assay: Acumen; type: cell-based; settings: Homo sapiens, 168 h, 7 days, read-out: Abs IC50 growth inhibition
Experimental: as §6, §7, §8

Huh-7D12 = assay: Clonogenic assay; type: cell-based, human; settings: continuously treated 14 days, crystal violet
Experimental: (§9) Cells were seeded at 2500/mL and, starting 24 h later, provided with fresh medium and NV651 every day for the following 14 days. Then, colonies were stained with crystal violet, which was subsequently dissolved in 10% acetic acid and quantified by a spectrophotometer by absorbance at 595 nm.

PLC/PRF/5 = assay: Clonogenic assay; type: cell-based, human; settings: continuously treated 14 days, crystal violet
Experimental: as §9

Hep3B = assay: Clonogenic assay; type: cell-based, human; settings: continuously treated 14 days, crystal violet
Experimental: as §9

HEPG2 [5] = assay: Clonogenic assay; type: cell-based, human; settings: continuously treated 14 days, crystal violet
Experimental: as §9

Q: What does the source list for CC(=O)CCC1C(=O)NC(C(C)C)C(=O)NC(Cc2cc(O)cc(F)c2)C(=O)N2CCCC(N2)C(=O)OC(C(C)=CC=CC(=O)OC(C)(C)C)CC=CC=CC(O)C(C)C1O (centres unmarked) [NV651]?
A: fraction of cells positive for the phosphorylation of histone 3 (PH3) (HUH7 [1]): increased; fraction of cells positive for the phosphorylation of histone 3 (PH3) (HEPG2 [2]): increased; IC50 (Unstimulated PBMCs): > 30000 nM; IC50 (PHA-stimulated PBMCs): > 30000 nM; IC50 (Hepatocytes): > 30000 nM; IC50 (Monocytes/Macrophages): 24300 nM; IC50 (iPS neurons): > 30000 nM; IC50 (LIXC-006): 8 nM; IC50 (HEP3B2.1-7-Luc): 9 nM; IC50 (LIXC-004): 4 nM; IC50 (HUH7 [3]): 3 nM; IC50 (LIXC-066): 169 nM; IC50 (LIXC-086): 656 nM; IC50 (LIXC-003): 9 nM; IC50 (HEPG2 [4]): 6.3 nM; IC50 (LIXC-012): 94 nM; number of colonies (Huh-7D12): reduced the number of colonies; number of colonies (PLC/PRF/5): reduced the number of colonies; number of colonies (Hep3B): reduced the number of colonies; number of colonies (HEPG2 [5]): reduced the number of colonies
